In patent US20060264418A1, “6-(2,2,2-Trifluoroethylamino-7-chloro-2,3,4,5-tetrahydro-1h-benzo[d] azephine as a 5-ht2c receptor agonist” (priority 2003, published 2006):

Assays:
[1] = system: male NIH Swiss mice; assay: Marble burying assay (with rotorod); assay type: in vivo, mouse
Description: Marble burying in mice has been used to model anxiety disorders including obsessive-compulsive disorders (OCD) due to ethological study of the behavior (e.g. Gyertyan I. “Analysis of the marble burying response: Marbles serve to measure digging rather than evoke burying”, Behavioural Pharmacology 6: 24-31, (1995)) and due to the pharmacological effects of clinical standards (c.f., Njung′E K. Handley S L. “Evaluation of marble-burying behavior as a model of anxiety”, Pharmacology, Biochemistry & Behavior. 38: 63-67, (1991)); Borsini F., Podhorna J., and Marazziti, D. “Do animal models of anxiety predict anxiolytic effects of antidepressants?”, Psychopharmacology 163: 121-141, (2002)). Thus, drugs used in the treatment of generalized anxiety in humans (e.g. benzodiazepines) as well as compounds used to treat OCD (e.g. SSRIs like fluoxetine) decrease burying.
House experimentally-naïve male, NIH Swiss mice (Harlan Sprague-Dawley, Indianapolis, Ind.) weighing between 28-35 g in groups of 12 for at least three days prior to testing in a vivarium with 12 hr. light and dark cycles. Conduct experiments during the light cycle in a dimly lit experimental testing room. Dose mice with vehicle or compound and, after a specified pretreatment interval (generally 30 min.), place each mouse individually on a rotorod (Ugo Basile 7650) operating at a speed of 6 revolutions/min. and observe for falling. After 2 min. on the rotorod, place the mice individually in a 17×28×12 cm high plastic tub with 5 mm sawdust shavings on the floor that are covered with 20 blue marbles (1.5 cm diameter) placed in the center. After 30 min., count the number of marbles buried (⅔ covered with sawdust). Assess the compound's effect on marble burying with Dunnett's test and the effect on rotorod performance by Fisher's exact test.
Clinically effective standard compounds suppress marble burying at doses that are devoid of motor-impairing effects as measured on the rotorod. […]

[2] = biological target: T1, 5-HT2C receptor (Homo sapiens, UniProt P28335); assay: G alpha q-GTPγ[35S] binding agonist activity assay (ISPA), 5-HT2C; assay type: biochemical; design: expressed in transfected cells; host or cells: AV12 cells
T1 sequence (P28335 33-458): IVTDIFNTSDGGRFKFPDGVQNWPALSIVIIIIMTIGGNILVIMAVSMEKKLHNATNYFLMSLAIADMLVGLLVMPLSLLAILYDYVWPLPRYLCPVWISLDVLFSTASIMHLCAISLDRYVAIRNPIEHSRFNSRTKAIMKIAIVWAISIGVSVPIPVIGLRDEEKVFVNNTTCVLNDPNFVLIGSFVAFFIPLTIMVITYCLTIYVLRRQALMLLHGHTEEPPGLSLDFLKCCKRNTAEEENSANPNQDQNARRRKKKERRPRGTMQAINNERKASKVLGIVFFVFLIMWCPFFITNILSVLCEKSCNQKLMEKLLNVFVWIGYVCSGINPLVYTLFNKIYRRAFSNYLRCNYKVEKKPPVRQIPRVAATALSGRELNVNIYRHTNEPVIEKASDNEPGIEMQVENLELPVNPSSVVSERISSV

FC(F)(F)CNc1c(Cl)ccc2c1CCNCC2.O=C(O)CCC(=O)O [Example 2, 7-Chloro-6-(2,2,2-trifluoroethylamino)-2,3,4,5-tetrahydro-1H-benzo[d]azepine Succinic Acid Salt]
reduction of burying behavior with co-administration of the 5-HT2C antagonist [1]: blocked
marble burying behavior (relative to rotorod performance) ([1]; 30 min. burying session): reduce burying behavior
EC50 [2]: 11.8 ± 2.8 nM
AUC 2C/2A Selectivity Ratio ([2]; ratio of AUCs normalized to 5-HT, 5-HT2C receptor/5-HT2A receptor): 2.2
AUC 2C/2B Selectivity Ratio ([2]; ratio of AUCs normalized to 5-HT, 5-HT2C receptor/5-HT2B receptor): 3.8
Emax ([2]; read-out: 5HT2C Emax): 106 ± 2.8%
